Measurements taken from patent publication US8450362B2, “Amidine-containing compounds useful as muscarinic receptor antagonists” (Theravance, Inc., priority 2007, dated 2013).

Key:
[1] = system: MCh bronchoconstrictor response; assay: Rat Einthoven assay (bronchoprotection, inhaled dosing); format: in vivo; settings: inhalation; for ID50 (bronchoprotection): 1.5 hrs post-dose
Method: All test compounds are diluted in sterile water and are dosed via the inhalation route (IH). The rats (Sprague-Dawley, male, 250-350 g) are exposed to the aerosol generated from an LC Star Nebulizer Set and driven by a mixture of gases (5% CO2/95% atmospheric air). Each test compound solution is nebulized over a 10 minute time period in a pie shaped dosing chamber capable of holding six rats. At predetermined time points after inhalation of compound, the Einthoven assay is performed.
Thirty minutes prior to the start of pulmonary evaluation, the animals are anesthetized with inactin (thiobutabarbital, 120 mg/kg IP). The jugular vein is catheterized with saline filled polyethylene catheters (PE-50) and used to infuse MCh. The trachea is then dissected and cannulated with a 14G needle and used for rat ventilation during pulmonary evaluation. Once surgery is complete, rats are ventilated using a piston respirator set at a stroke volume of 1 ml/100 g body weight but not exceeding 2.5 ml volume, and at a rate of 90 strokes per minute.
The changes in pressure that occur with each breath are measured. Baseline values are collected for at least 2.5 minutes then rats are challenged non-cumulatively with 2-fold incremental increases of the bronchoconstrictor MCh (5, 10, 20, 40 and 80 μg/ml). The MCh is infused for 2.5 minutes from a syringe pump at a rate of 2 mL/kg/min. The animals are euthanized upon completion of the studies.
Changes in ventilation pressure (cm H2O) in treated animals are expressed as % inhibition of MCh response relative to control animals.
Standard muscarinic antagonists were evaluated in the rat Einthoven assay 1.5 hrs post-dose.
Standards tiotropium and ipratropium were also evaluated 24 hr and/or 6 hr post-dose in the rat Einthoven assay. […] The observed loss of activity at this time point (6 hr) is consistent with its relatively short duration of action in the clinic.

[2] = system: pilocarpine-induced salivation; assay: Rat antisialagogue assay; format: in vivo; settings: evaluated at 1, 6 and 24 hr post-dose
Method: Rats (Sprague-Dawley, male, 250-350 g) are dosed, anesthetized and cannulated as described for Assay 3. At predetermined time points and after surgery, animals are placed on their dorsal side at a 20° incline with their head in a downward slope. A pre-weighed gauze pad is inserted in the animal's mouth and the muscarinic agonist pilocarpine (PILO) (3 mg/kg, iv.) is administered. Saliva produced during 10 minutes post-PILO is measured gravimetrically by determining the weight of the gauze pad before and after PILO. Antisialagogue effects are expressed as % inhibition of salivation relative to control animals.
The rat antisialagogue assay was developed to assess systemic exposure and calculate the lung selectivity index (LSI) of test compounds. The standard, tiotropium, was evaluated in this model at 1, 6, and 24 hr post-dose. […] This finding is consistent with the peak effects observed in the Einthoven assay. This model is a modified version of the procedure described in Rechter, “Estimation of anticholinergic drug effects in mice by antagonism against pilocarpine-induced salivation” Ata Pharmacol Toxicol 24:243-254 […]. The mean weight of saliva in vehicle-treated animals, at each pre-treatment time, is calculated and used to compute % inhibition of salivation, at the corresponding pre-treatment time, at each dose. […]

SMILES | ID50 (bronchoprotection) [1] [µg/mL] | fold less potent 6-hr post-dose compared to 1.5 hr potency ([1]; 10 and 30 μg/ml, 6 hr vs 1.5 hr) | 6 hr versus 24 hr potency values [1] | fold more potent at 6 hr and 24 hr compared to 1.5 hr potency ([1]; 6 hr and 24 hr vs 1.5 hr) | time of peak bronchoprotection post-dose ([1]; slow onset of effect) [h] | time post dose of greatest potency at inhibiting pilocarpine-induced salivation [2] [h]
C[N+]1(C)CCC(OC(=O)C(O)(c2ccccc2)C2CCCC2)C1 (centres unmarked) [glycopyrrolate] | 15 |  |  |  |  | 
CC(C)[N+]1(C)[C@@H]2CC[C@H]1C[C@@H](OC(=O)C(CO)c1ccccc1)C2 (some centres unmarked) [ipratropium] | 4.4 | about 3 fold |  |  |  | 
C[N+]1(C)[C@@H]2C[C@@H](OC(=O)C(O)(c3cccs3)c3cccs3)C[C@H]1[C@@H]1O[C@@H]12 [tiotropium] | 6 |  | not significantly different from each other | about 2 fold | 6 | 6
